“And” between values parts separate entries of the source, which are not always exact repeats. Identical values can stand only once.
System: MDA-MB-231 complex spheroids, growth inhibition
Test: Anticancer human tumor MDA-MB-231 cell line growth inhibition [Asc];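 further: spheroids exposed to compounds for 7 days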
Conditions: for viability, T/C: stronger effect = lower value
Summary of the method: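 Tumor cells were grown as complex spheroids with human endothelial cells (HUVEC) and human mesenchymal stem cells as stroma. Agents were tested alone and in combination, in half-log steps down from the clinical Cmax, or from 10 microM where Cmax was unknown.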

[1] = curve of first compound, second compound 0.1 µM
[2] = curve of first compound, second compound 0.316 µM
[3] = curve of first compound, second compound 1 µM
[4] = curve of first compound, second compound 3.16 µM
[5] = curve of first compound, second compound 10 µM
[6] = second compound 0.1 µM, first compound 0.000316 µM
[7] = second compound 0.1 µM, first compound 0.001 µM
[8] = second compound 0.1 µM, first compound 0.00316 µM
[9] = second compound 0.1 µM, first compound 0.01 µM
[10] = second compound 0.1 µM, first compound 0.0316 µM
[11] = second compound 0.1 µM, first compound 0.1 µM
[12] = second compound 0.316 µM, first compound 0.000316 µM
[13] = second compound 0.316 µM, first compound 0.001 µM
[14] = second compound 0.316 µM, first compound 0.00316 µM
[15] = second compound 0.316 µM, first compound 0.01 µM
[16] = second compound 0.316 µM, first compound 0.0316 µM
[17] = second compound 0.316 µM, first compound 0.1 µM
[18] = second compound 1 µM, first compound 0.000316 µM
[19] = second compound 1 µM, first compound 0.001 µM
[20] = second compound 1 µM, first compound 0.00316 µM
[21] = second compound 1 µM, first compound 0.01 µM
[22] = second compound 1 µM, first compound 0.0316 µM
[23] = second compound 1 µM, first compound 0.1 µM
[24] = second compound 3.16 µM, first compound 0.00316 µM
[25] = second compound 3.16 µM, first compound 0.01 µM
[26] = second compound 3.16 µM, first compound 0.0316 µM
[27] = second compound 3.16 µM, first compound 0.1 µM
[28] = second compound 10 µM, first compound 0.00316 µM
[29] = second compound 10 µM, first compound 0.01 µM
[30] = second compound 10 µM, first compound 0.0316 µM
[31] = second compound 10 µM, first compound 0.1 µM

## C=CC(=O)N1CCN(c2nc(=O)n(-c3c(C)ccnc3C(C)C)c3nc(-c4c(O)cccc4F)c(F)cc23)C(C)C1 (centres undefined) + CCN1C(C(=O)NC23CCC(C(=O)O)(CC2)CC3)C(c2cccc(Cl)c2F)C2(C(=O)Nc3cc(Cl)ccc32)C12CCCCC2
Curve of first compound, second compound 0.03 µM
  IC50: > 10000 nM
Curve of first compound, second compound 0.0949 µM
  IC50: > 10000 nM
Curve of first compound, second compound 0.3 µM
  IC50: > 10000 nM
Curve of first compound, second compound 0.949 µM
  IC50: > 10000 nM
Curve of first compound, second compound 3 µM
  IC50: > 10000 nM
Second compound 0.03 µM, first compound 0.0316 µM
  viability, T/C: 97.4%
Second compound 0.03 µM, first compound 0.1 µM
  viability, T/C: 97.9%
Second compound 0.03 µM, first compound 0.316 µM
  viability, T/C: 103%
Second compound 0.03 µM, first compound 1 µM
  viability, T/C: 104%
Second compound 0.03 µM, first compound 3.16 µM
  viability, T/C: 102%
Second compound 0.03 µM, first compound 10 µM
  viability, T/C: 106%
Second compound 0.0949 µM, first compound 0.0316 µM
  viability, T/C: 108%
Second compound 0.0949 µM, first compound 0.1 µM
  viability, T/C: 107%
Second compound 0.0949 µM, first compound 0.316 µM
  viability, T/C: 112%
Second compound 0.0949 µM, first compound 1 µM
  viability, T/C: 109%
Second compound 0.0949 µM, first compound 3.16 µM
  viability, T/C: 116%
Second compound 0.0949 µM, first compound 10 µM
  viability, T/C: 120%
Second compound 0.3 µM, first compound 0.0316 µM
  viability, T/C: 101%
Second compound 0.3 µM, first compound 0.1 µM
  viability, T/C: 103%
Second compound 0.3 µM, first compound 0.316 µM
  viability, T/C: 110%
Second compound 0.3 µM, first compound 1 µM
  viability, T/C: 118%
Second compound 0.3 µM, first compound 3.16 µM
  viability, T/C: 121%
Second compound 0.3 µM, first compound 10 µM
  viability, T/C: 108%
Second compound 0.949 µM, first compound 0.0316 µM
  viability, T/C: 113%
Second compound 0.949 µM, first compound 0.1 µM
  viability, T/C: 113%
Second compound 0.949 µM, first compound 0.316 µM
  viability, T/C: 120%
Second compound 0.949 µM, first compound 1 µM
  viability, T/C: 118%
Second compound 0.949 µM, first compound 3.16 µM
  viability, T/C: 129%
Second compound 0.949 µM, first compound 10 µM
  viability, T/C: 121%
Second compound 3 µM, first compound 0.0316 µM
  viability, T/C: 96%
Second compound 3 µM, first compound 0.1 µM
  viability, T/C: 107%
Second compound 3 µM, first compound 0.316 µM
  viability, T/C: 109%
Second compound 3 µM, first compound 1 µM
  viability, T/C: 114%
Second compound 3 µM, first compound 3.16 µM
  viability, T/C: 115%
Second compound 3 µM, first compound 10 µM
  viability, T/C: 112%

## NC1CCC(NC2CC2c2ccccc2)CC1 (centres undefined) + Cc1c(S(C)(=O)=O)c(-c2cc(F)cc(N3CCN(c4ccc(NS(=O)(=O)c5ccc(NC(CCN6CCC(C(=O)OCCCP(=O)(O)O)CC6)CSc6ccccc6)c(S(=O)(=O)C(F)(F)F)c5)cc4)CC3)c2)c(-c2ccc(Cl)cc2)n1C(C)C
[1]
  IC50: > 100 nM
[2]
  IC50: > 100 nM
[3]
  IC50: > 100 nM
[4]
  IC50: > 100 nM
[5]
  IC50: > 100 nM
[6]
  viability, T/C: 102%
[7]
  viability, T/C: 98.7%
[8]
  viability, T/C: 104%
[9]
  viability, T/C: 99.1%
[10]
  viability, T/C: 92.5%
[11]
  viability, T/C: 103%
[12]
  viability, T/C: 104%
[13]
  viability, T/C: 103%
[14]
  viability, T/C: 106%
[15]
  viability, T/C: 104%
[16]
  viability, T/C: 105%
[17]
  viability, T/C: 103%
[18]
  viability, T/C: 96.1%
[19]
  viability, T/C: 106%
[20]
  viability, T/C: 103%
[21]
  viability, T/C: 108%
[22]
  viability, T/C: 105%
[23]
  viability, T/C: 102%
Second compound 3.16 µM, first compound 0.000316 µM
  viability, T/C: 93.3%
Second compound 3.16 µM, first compound 0.001 µM
  viability, T/C: 94.2%
[24]
  viability, T/C: 99.5%
[25]
  viability, T/C: 90.8%
[26]
  viability, T/C: 93.2%
[27]
  viability, T/C: 94.7%
Second compound 10 µM, first compound 0.000316 µM
  viability, T/C: 101%
Second compound 10 µM, first compound 0.001 µM
  viability, T/C: 100%
[28]
  viability, T/C: 101%
[29]
  viability, T/C: 101%
[30]
  viability, T/C: 96.6%
[31]
  viability, T/C: 94.1%

## C=CC(=O)N1CCN(c2nc(=O)n(-c3c(C)ccnc3C(C)C)c3nc(-c4c(O)cccc4F)c(F)cc23)C(C)C1 (centres undefined)
Compound 0.0316 µM
  viability, T/C: 101% and 102% and 103%
Compound 0.1 µM
  viability, T/C: 104% and 105% and 103%
Compound 0.316 µM
  viability, T/C: 106% (2×) and 107%
Compound 1 µM
  viability, T/C: 107% and 109% and 111%
Compound 3.16 µM
  viability, T/C: 119% and 117% and 113%
Compound 10 µM
  viability, T/C: 119% and 121% and 110%
Curve of compound
  IC50: > 10000 nM

## O=C(c1ccc(F)c(F)c1Nc1ccc(I)cc1F)N1CC(O)([C@@H]2CCCCN2)C1
Compound 0.00316 µM
  viability, T/C: 86.9% and 79.8% and 88.6%
Compound 0.01 µM
  viability, T/C: 56.7% and 67.7% and 55.5%
Compound 0.0316 µM
  viability, T/C: 47.7% and 58.3% and 33.5%
Compound 0.1 µM
  viability, T/C: 43.8% and 50.7% and 21.9%
Compound 0.316 µM
  viability, T/C: 29.6% and 30.4% and 22.2%
Compound 1 µM
  viability, T/C: 2.86% and 5.09% and 7.27%
Curve of compound
  IC50: 37 nM and 83.1 nM and 13.6 nM

## CCN1CCN(Cc2ccc(Nc3ncc(F)c(-c4cc(F)c5nc(C)n(C(C)C)c5c4)n3)nc2)CC1 + Cc1c(S(C)(=O)=O)c(-c2cc(F)cc(N3CCN(c4ccc(NS(=O)(=O)c5ccc(NC(CCN6CCC(C(=O)OCCCP(=O)(O)O)CC6)CSc6ccccc6)c(S(=O)(=O)C(F)(F)F)c5)cc4)CC3)c2)c(-c2ccc(Cl)cc2)n1C(C)C
[1]
  IC50: 648 nM
[2]
  IC50: > 1000 nM
[3]
  IC50: 306 nM
[4]
  IC50: 258 nM
[5]
  IC50: 308 nM
[8]
  viability, T/C: 97.4%
[9]
  viability, T/C: 97.9%
[10]
  viability, T/C: 84%
[11]
  viability, T/C: 65.6%
Second compound 0.1 µM, first compound 0.316 µM
  viability, T/C: 47.9%
Second compound 0.1 µM, first compound 1 µM
  viability, T/C: 51.5%
[14]
  viability, T/C: 103%
[15]
  viability, T/C: 95.4%
[16]
  viability, T/C: 84.9%
[17]
  viability, T/C: 64.8%
Second compound 0.316 µM, first compound 0.316 µM
  viability, T/C: 49.7%
Second compound 0.316 µM, first compound 1 µM
  viability, T/C: 53.1%
[20]
  viability, T/C: 98.1%
[21]
  viability, T/C: 93.2%
[22]
  viability, T/C: 87.7%
[23]
  viability, T/C: 67.6%
Second compound 1 µM, first compound 0.316 µM
  viability, T/C: 49.5%
Second compound 1 µM, first compound 1 µM
  viability, T/C: 42.1%
[24]
  viability, T/C: 95.9%
[25]
  viability, T/C: 91.9%
[26]
  viability, T/C: 83.8%
[27]
  viability, T/C: 63.8%
Second compound 3.16 µM, first compound 0.316 µM
  viability, T/C: 47.7%
Second compound 3.16 µM, first compound 1 µM
  viability, T/C: 36.5%
[28]
  viability, T/C: 104%
[29]
  viability, T/C: 97.7%
[30]
  viability, T/C: 93.6%
[31]
  viability, T/C: 76.9%
Second compound 10 µM, first compound 0.316 µM
  viability, T/C: 48.7%
Second compound 10 µM, first compound 1 µM
  viability, T/C: 32.2%

## NC1CCC(NC2CC2c2ccccc2)CC1 (centres undefined) + CNC(C)C(=O)NC1CN(S(=O)(=O)c2cccc(S(=O)(=O)N3CCC4CCC(C(=O)NC(c5ccccc5)c5ccccc5)N4C(=O)C(NC(=O)C(C)NC)C3)c2)CCC2CCC(C(=O)NC(c3ccccc3)c3ccccc3)N2C1=O
Curve of first compound, second compound 0.01 µM
  IC50: < 0.316 nM
Curve of first compound, second compound 0.0316 µM
  IC50: < 0.316 nM
[1]
  IC50: < 0.316 nM
[2]
  IC50: < 0.316 nM
[3]
  IC50: < 0.316 nM
Second compound 0.01 µM, first compound 0.000316 µM
  viability, T/C: 4.48%
Second compound 0.01 µM, first compound 0.001 µM
  viability, T/C: 3.37%
Second compound 0.01 µM, first compound 0.00316 µM
  viability, T/C: 3.36%
Second compound 0.01 µM, first compound 0.01 µM
  viability, T/C: 4.1%
Second compound 0.01 µM, first compound 0.0316 µM
  viability, T/C: 4.51%
Second compound 0.01 µM, first compound 0.1 µM
  viability, T/C: 3.46%
Second compound 0.0316 µM, first compound 0.000316 µM
  viability, T/C: 1.91%
Second compound 0.0316 µM, first compound 0.001 µM
  viability, T/C: 3.37%
Second compound 0.0316 µM, first compound 0.00316 µM
  viability, T/C: 2.61%
Second compound 0.0316 µM, first compound 0.01 µM
  viability, T/C: 2.96%
Second compound 0.0316 µM, first compound 0.0316 µM
  viability, T/C: 2.47%
Second compound 0.0316 µM, first compound 0.1 µM
  viability, T/C: 2.27%
[6]
  viability, T/C: 2.48%
[7]
  viability, T/C: 2.67%
[8]
  viability, T/C: 3.07%
[9]
  viability, T/C: 2.19%
[10]
  viability, T/C: 2.11%
[11]
  viability, T/C: 2.38%
[12]
  viability, T/C: 1.42%
[13]
  viability, T/C: 3.18%
[14]
  viability, T/C: 2.55%
[15]
  viability, T/C: 0.99%
[16]
  viability, T/C: 1.23%
[17]
  viability, T/C: 0.81%
[18]
  viability, T/C: 1.08%
[19]
  viability, T/C: 1.04%
[20]
  viability, T/C: 1.62%
[21]
  viability, T/C: 0.85%
[22]
  viability, T/C: 0.86%
[23]
  viability, T/C: 0.84%

Source: PubChem BioAssay AID1963443 (Molecular Pharmacology Branch, DTP, NCI, 2024)
